Test results reported in ChEMBL document CHEMBL3137667, “[Drug-induced liver injury; fourteenth updated edition of the bibliographic database of liver injuries and related drugs]” (Gastroenterol Clin Biol, 2004).

Key:
[1] = Highest frequency of moderate liver toxicity observed during clinical trials, expressed as a percentage. [column '% BIOL' in source]; settings: human
[2] = Highest frequency of acute liver toxicity observed during clinical trials, expressed as a percentage. [column '% AIGUE' in source]; settings: human
[3] = Times to onset, minimal and maximal, observed in the indexed observations. [column 'DELAI' in source]; settings: human
[4] = human, serum
[5] = human, serum; remark: listed apart in the source
[6] = human
[7] = human; remark: listed apart in the source
[8] = human; remark: listed apart in the source
[9] = human, serum, 4383 h
[10] = human; remark: listed apart in the source
[11] = human; remark: listed apart in the source
[12] = human; remark: listed apart in the source
[13] = human; remark: listed apart in the source
[14] = human; remark: listed apart in the source
[15] = human; remark: listed apart in the source
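For Hepatotoxicity (association with vascular disease) in this document: count of indexed literature references reporting vascular liver injury in humans, e.g. peliosis hepatitis, hepatic veno-occlusive disease or Budd-Chiari syndrome.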
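For Hepatotoxicity (benign tumour) in this document: value is a count of indexed literature references citing a benign tumour confirmed by histopathology.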
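For Hepatotoxicity (choleostasis) in this document: human cholestatic liver injury, shown by histopathology or by peak ALT or AST elevation over alkaline phosphatase ratio below 2, value counts indexed literature reports.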
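For Hepatotoxicity (chronic liver disease) in this document: chronic liver injury confirmed by histopathology or persistently raised serum aminotransferase activity beyond 6 months, value given as the count of indexed literature references.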
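For Hepatotoxicity (cirrhosis) in this document: value is a count of indexed literature references reporting cirrhosis confirmed by histopathology.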
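For Hepatotoxicity (cytolytic) in this document: human cytolytic liver injury, shown by histopathology or by a ratio above 5 of peak ALT or AST elevation to alkaline phosphatase elevation, value counts indexed references.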
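For Hepatotoxicity (granulomatous hepatitis) in this document: value is a count of indexed literature references reporting granulomatous liver disease confirmed by histopathology.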
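For Hepatotoxicity (malignant tumour) in this document: malignant tumour confirmed by histopathology, value gives the count of indexed literature references reporting it.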
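For Hepatotoxicity (severe hepatitis) in this document: human clinical data: severe hepatitis, meaning potentially life-threatening liver failure or clinically observed cases, the value counts how many indexed literature references report it.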
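For Hepatotoxicity (steatosis) in this document: steatosis confirmed by histopathology, value is the count of indexed references.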

| Compound | Hepatotoxicity (moderate) ([1]; Liver) [%] | Hepatotoxicity (acute) ([2]; Liver) [%] | Hepatotoxicity (time to onset) [3] | Hepatotoxicity (moderate) [4] | Hepatotoxicity (acute) [5] | Hepatotoxicity (cytolytic) [6] | Hepatotoxicity (choleostasis) [7] | Hepatotoxicity (severe hepatitis) ([8]; Liver) | Hepatotoxicity (chronic liver disease) [9] | Hepatotoxicity (cirrhosis) [10] | Hepatotoxicity (granulomatous hepatitis) [11] | Hepatotoxicity (association with vascular disease) [12] | Hepatotoxicity (steatosis) [13] | Hepatotoxicity (malignant tumour) [14] | Hepatotoxicity (benign tumour) [15] | Hepatotoxicity (moderate) [1] [%] | Hepatotoxicity (acute) [2] [%] | Hepatotoxicity (severe hepatitis) [8] | also measured |
| --- | --- | --- | --- | --- | --- | --- | --- | --- | --- | --- | --- | --- | --- | --- | --- | --- | --- | --- | --- |
| COc1ccccc1OCCNCC(O)COc1cccc2[nH]c3ccccc3c12 (stereo not given) [CARVEDILOL] | 0 | 0 | 6 months | 0 | 1 | 1 | 1 | 0 | 0 | 0 | 0 | 0 | 0 | 0 | 0 | – | – | – | – |
| N[C@@H](C(=O)N[C@@H]1C(=O)N2C(C(=O)O)=C(Cl)CS[C@H]12)c1ccccc1 [CEFACLOR ANHYDROUS] | – | – | 8 days | 20 | 2 | 1 | 2 | – | 0 | 0 | 0 | 0 | 0 | 0 | 0 | 10.7 | 2.2 | 0 | – |
| Cn1nnnc1SCC1=C(C(=O)O)N2C(=O)[C@@H](NC(=O)[C@H](O)c3ccccc3)[C@H]2SC1 [CEFAMANDOLE] | – | – | 4 days | 13 | 2 | 0 | 1 | – | 0 | 0 | 0 | 0 | 0 | 0 | 0 | 75 | 2.4 | 0 | – |
| C=CC1=C(C(=O)O)N2C(=O)[C@@H](NC(=O)/C(=N\OCC(=O)O)c3csc(N)n3)[C@H]2SC1 [CEFIXIME] | – | – | 2 days | 37 | 1 | 0 | 1 | – | 0 | 0 | 0 | 0 | 0 | 0 | 0 | 33.3 | 0 | 0 | – |
| CO[C@@]1(NC(=O)CSC[C@@H](N)C(=O)O)C(=O)N2C(C(=O)O)=C(CSc3nnnn3C)CS[C@@H]21 [CEFMINOX] | 16.7 | 0.1 | 9 days | 12 | 2 | – | – | 0 | 0 | 0 | – | 0 | 0 | 0 | 0 | – | – | – | Hepatotoxicity (cytolytic) ([6]; Liver): 0; Hepatotoxicity (choleostasis) ([7]; Liver): 0; Hepatotoxicity (granulomatous hepatitis) ([11]; Liver): 0 |
| NCc1ccccc1CC(=O)N[C@@H]1C(=O)N2C(C(=O)O)=C(CSc3nnnn3CC(=O)O)CS[C@H]12 [CEFORANIDE] | – | – | 5 days - 3 weeks | 6 | 2 | 2 | 1 | – | 0 | 0 | 0 | 0 | 0 | 0 | 0 | 42.9 | 3.4 | 0 | – |
